Molecular target: T1, Mnn10 (MBP-fused Mnn10) (Candida albicans, UniProt Q59UR2)
T1 construct: non-transmembrane region, residues 70-335, MBP fusion (pMAL-p5X), E. coli BL21 (DE3) pLysS, amylose resin; tag kept
Experiment: mannosyltransferase assay, ANTS labelling of products, FACE gel
Format: biochemical
Settings: 5 mM GDP-D-mannose, 10 mM α-1,6-D-mannobiose, 10 mM MnCl2, 50 mM HEPES pH 7.2, 30 °C, 1 h

T1 sequence (Q59UR2 entry or part of it): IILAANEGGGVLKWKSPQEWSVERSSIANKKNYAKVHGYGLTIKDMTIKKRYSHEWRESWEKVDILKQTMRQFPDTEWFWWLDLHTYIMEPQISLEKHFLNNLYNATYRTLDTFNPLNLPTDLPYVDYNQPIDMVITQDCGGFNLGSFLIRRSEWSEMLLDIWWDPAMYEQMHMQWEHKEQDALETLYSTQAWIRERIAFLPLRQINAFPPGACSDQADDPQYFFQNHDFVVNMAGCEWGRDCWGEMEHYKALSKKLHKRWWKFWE

Structure (SMILES) | mannosyltransferase assay, ANTS labelling of products, FACE gel (donor) | mannosyltransferase assay, ANTS labelling of products, FACE gel (acceptor)
Nc1nc2c(ncn2[C@@H]2O[C@H](COP(=O)(O)OP(=O)(O)O[C@H]3O[C@H](CO)[C@@H](O)[C@H](O)[C@@H]3O)[C@@H](O)[C@H]2O)c(=O)[nH]1 [GDP-mannose] | Mnn10 catalyzes the transformation of GDP-mannose to α-1,6-mannobiose to form mannotriose and mannotetraose | –
OC[C@H]1O[C@H](OC[C@H]2OC(O)[C@@H](O)[C@@H](O)[C@@H]2O)[C@@H](O)[C@@H](O)[C@@H]1O (stereo partly drawn) [α-1,6-mannobiose] | – | required α-1,6-linked mannobiose as an acceptor and GDP-mannose as a donor

Source: publication PMC4856274, “Mnn10 Maintains Pathogenicity in Candida albicans by Extending α-1,6-Mannose Backbone to Evade Host Dectin-1 Mediated Antifungal Immunity” (PLoS Pathogens, 2016)
